Data taken from patent publication US9371322B2, “Bicyclic aza-amides for treatment of psychiatric disorders” (MAX-PLANCK-GESELLSCHAFT ZUR FÖRDERUNG DER WISSENSCHAFTEN …, priority 2012, dated 2016).
Blank lines part the entries; values can stand above or below the compound they belong to.

Key:
FKBP52 = biological target: T1, FKBP52 (Homo sapiens, UniProt Q02790); experiment: Competitive fluorescence polarization assay, binding to FKBP52; conditions: for Ki: fluorescence polarization, FKBP52FK1, fluorescent tracer 20 nM final, 30 min room temperature; for FKBP52 ligand efficiency (LE): LE=(ΔG)/N, ΔG=−RTlnKi, RT=0.6, N non-hydrogen atoms
T1 construct: 400 nM FKBP51FK1, 1600 nM FKBP52FK1
T1 sequence (Q02790 50-138 limits assumed): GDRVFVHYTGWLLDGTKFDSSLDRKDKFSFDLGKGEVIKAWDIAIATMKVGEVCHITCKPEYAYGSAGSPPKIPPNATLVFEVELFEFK
Experimental: (§1) Binding of the bicyclic compounds to FKBPs was measured using a competitive fluorescence polarization
(§2) The compound library ligand was dissolved in DMSO to reach a 100-times concentrated stock solution. This was used for a 1:1 serial dilution in DMSO. […] For FKBP12, -51FK1 and -52FK1 the binding assays were performed in duplicates in the plate format. The competition curves were analyzed by using SigmaPlot11. Data were fitted to a four parameter logistic curve to deduce the IC50 values.

FKBP51 = biological target: T2, FKBP51 (Homo sapiens, UniProt Q13451); experiment: Competitive fluorescence polarization assay, binding to FKBP51; conditions: for Ki: fluorescence polarization, FKBP51FK1, fluorescent tracer 20 nM final, 30 min room temperature; for FKBP51 ligand efficiency (LE): LE=(ΔG)/N, ΔG=−RTlnKi, RT=0.6, N non-hydrogen atoms
T2 construct: 400 nM FKBP51FK1, 1600 nM FKBP52FK1
T2 sequence (Q13451 42-130 limits assumed): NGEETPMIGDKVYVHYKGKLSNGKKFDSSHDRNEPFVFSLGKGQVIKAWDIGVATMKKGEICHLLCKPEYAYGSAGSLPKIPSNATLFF
Experimental: as §1, §2

FKBP12 = FKBP12 (Homo sapiens, UniProt P62942); experiment: Competitive fluorescence polarization assay, binding to FKBP12; conditions: for FKBP12 ligand efficiency (LE): LE=(ΔG)/N, ΔG=−RTlnKi, RT=0.6, N non-hydrogen atoms; for Ki: fluorescence polarization, fluorescent tracer 20 nM final, 30 min room temperature
FKBP12, sequence (P62942 whole entry): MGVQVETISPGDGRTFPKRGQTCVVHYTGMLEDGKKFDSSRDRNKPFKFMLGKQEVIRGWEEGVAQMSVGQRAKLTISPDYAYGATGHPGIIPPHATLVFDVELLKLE
Experimental: as §1, §2

Structure (SMILES): O=C1C2CCCC(CN1c1ccccc1)N2S(=O)(=O)c1ccc(Cl)cc1 (centres unmarked) [Compound 4h]
- Ki (FKBP52): > 100 µM
- Ki (FKBP51): > 100 µM

Structure (SMILES): COc1ccc(OCCN2CC3CCCC(C2=O)N3S(=O)(=O)c2ccc3[nH]c(=O)sc3c2)cc1OC (centres unmarked) [Compound 4d, 6-(3-(2-(3,4-dimethoxyphenoxyl)ethyl)-2-oxo-3,9-diazabicyclo[3.3.1]nonan-9-ylsulfonyl)benzo[d]thiazol-2(3H)-one]
- FKBP12 ligand efficiency (LE) (FKBP12): 0.28
- Ki (FKBP12): 0.07 ± 0.0004 µM
- FKBP51 ligand efficiency (LE) (FKBP51): 0.19
- Ki (FKBP51): 13.9 ± 0.9 µM

Structure (SMILES): CCC(C)(C)C(=O)C(=O)N1C2CCCC1C(=O)N(CCOc1ccc(OC)c(OC)c1)CC2 (centres unmarked) [Compound 5f, 1-(3-(2-(3,4-dimethoxyphenoxyl)ethyl)-2-oxo-3,10-diazabicyclo-[4.3.1]decan-10-yl)-3,3-dimethylpentane-1,2-dione, reference compound]
- Ki (FKBP52): > 100 µM
- FKBP12 ligand efficiency (LE) (FKBP12): 0.24
- Ki (FKBP12): 1.5 ± 0.1 µM
- Ki (FKBP51): > 100 µM

Structure (SMILES): COc1ccc(OCCN2CCC3CCCC(C2=O)N3S(=O)(=O)c2cc(Cl)cc(Cl)c2)cc1OC (centres unmarked) [Compound 5b, 10-(3,5-dichlorophenylsulfonyl)-3-(2-(3,4-dimethoxyphenoxy)ethyl)-3,10-diazabicyclo[4.3.1]decan-2-one]
- FKBP52 ligand efficiency (LE) (FKBP52): 0.23
- Ki (FKBP52): 1.6 ± 0.3 µM
- FKBP12 ligand efficiency (LE) (FKBP12): 0.32
- Ki (FKBP12): 0.01 ± 0.002 µM
- FKBP51 ligand efficiency (LE) (FKBP51): 0.23
- Ki (FKBP51): 1.2 ± 0.2 µM

- Ki (FKBP52): > 100 µM
- FKBP12 ligand efficiency (LE) (FKBP12): 0.27
- Ki (FKBP12): 0.4 ± 0.006 µM
Structure (SMILES): COc1ccc(OCCOC(=O)C2CCCCN2S(=O)(=O)c2cc(Cl)cc(Cl)c2)cc1OC (centres unmarked) [Compound 3b, 2-(3,4-dimethoxyphenoxyl)ethyl 1-(3,5-dichlorophenyisulfonyl)-piperidine-2-carboxylate, reference compound]

Structure (SMILES): CCN1CC2CCCC(C1=O)N2C(=O)C(=O)c1cc(OC)c(OC)c(OC)c1 (centres unmarked) [Compound 4g, 1-(3-ethyl-2-oxo-3,9-diazabicyclo[3.3.1]nonan-9-yl)-2-(3,4,5-trimethoxyphenyl)ethane-1,2-dione, reference compound]
- Ki (FKBP52): > 100 µM
- FKBP12 ligand efficiency (LE) (FKBP12): 0.26
- Ki (FKBP12): 6.3 ± 0.02 µM

- Ki (FKBP52): > 100 µM
- FKBP12 ligand efficiency (LE) (FKBP12): 0.38
- Ki (FKBP12): 0.2 ± 0.004 µM
Structure (SMILES): CCOC(=O)C1CCCCN1S(=O)(=O)c1ccc2[nH]c(=O)sc2c1 (centres unmarked) [Compound 3d, ethyl 1-(2-oxo-2,3-dihydrobenzo[d]thiazol-6-ylsulfonyl)piperidine-2-carboxylate, reference compound]

Structure (SMILES): COc1ccc(CCN2CCC3CCCC(C2=O)N3C(=O)C(=O)c2cc(OC)c(OC)c(OC)c2)cc1OC (centres unmarked) [Compound 5h, 1-(3-(3,4-dimethoxyphenethyl)-2-oxo-3,10-diazabicyclo[4.3.1]-decan-10-yl)-2-(3,4,5-trimethoxyphenyl)ethane-1,2-dione, reference compound]
- Ki (FKBP52): > 100 µM
- FKBP12 ligand efficiency (LE) (FKBP12): 0.21
- Ki (FKBP12): 1.5 ± 0.04 µM
- Ki (FKBP51): > 100 µM

- Ki (FKBP51): 2.1 ± 0.4 µM
Structure (SMILES): C=C[C@H]1CN(CCOc2ccc(OC)c(OC)c2)C(=O)[C@@H]2CCC[C@H]1N2S(=O)(=O)c1cc(Cl)cc(Cl)c1 [Compound 5k, (1S,5S,6R)-10-(3,5-dichlorophenylsulfonyl)-3-(2-(3,4-dimethoxyphenoxyl)ethyl)-5-vinyl-3,10-diazabicyclo[4.3.1]decan-2-one]

Structure (SMILES): O=C1NCC2CCCC1N2S(=O)(=O)c1ccc2[nH]c(=O)sc2c1 (centres unmarked) [Compound 4e, 6-(2-oxo-3,9-diazabicyclo[3.3.1]nonan-9-ylsulfonyl)benzo[d]thiazol-2(3H)-one]
- FKBP52 ligand efficiency (LE) (FKBP52): 0.26
- Ki (FKBP52): 46.4 ± 3.8 µM
- FKBP12 ligand efficiency (LE) (FKBP12): 0.42
- Ki (FKBP12): 0.1 ± 0.0005 µM
- FKBP51 ligand efficiency (LE) (FKBP51): 0.27
- Ki (FKBP51): 27 ± 1.7 µM

Structure (SMILES): COc1ccc(OCCN2CCC3CCCC(C2=O)N3S(=O)(=O)c2ccc3ncsc3c2)cc1OC (centres unmarked) [Compound 5c, 10-(benzo[d]thiazol-6-ylsulfonyl)-3-(2-(3,4-dimethoxyphenoxyl)ethyl)-3,10-diazabicyclo[4.3.1]decan-2-one]
- FKBP52 ligand efficiency (LE) (FKBP52): 0.21
- Ki (FKBP52): 3.6 ± 0.5 µM
- FKBP12 ligand efficiency (LE) (FKBP12): 0.29
- Ki (FKBP12): 0.03 ± 0.007 µM
- FKBP51 ligand efficiency (LE) (FKBP51): 0.22
- Ki (FKBP51): 2.1 ± 0.2 µM

Structure (SMILES): COc1ccc(OCCN2CCC3CCCC(C2=O)N3S(=O)(=O)c2ccc3[nH]c(=O)sc3c2)cc1OC (centres unmarked) [Compound 5d, 6-(3-(2-(3,4-dimethoxyphenoxy)ethyl)-2-oxo-3,10-diazabicyclo[4.3.1]decan-10-ylsulfonyl)benzo[d]thiazol-2(3H)-one]
- FKBP52 ligand efficiency (LE) (FKBP52): 0.22
- Ki (FKBP52): 1.2 ± 0.2 µM
- FKBP12 ligand efficiency (LE) (FKBP12): 0.34
- Ki (FKBP12): 0.001 ± 0.0003 µM
- FKBP51 ligand efficiency (LE) (FKBP51): 0.24
- Ki (FKBP51): 0.3 ± 0.02 µM

- Ki (FKBP52): > 100 µM
- FKBP12 ligand efficiency (LE) (FKBP12): 0.28
- Ki (FKBP12): 0.1 ± 3e-05 µM
Structure (SMILES): COc1ccc(OCCOC(=O)C2CCCCN2S(=O)(=O)c2ccc3ncsc3c2)cc1OC (centres unmarked) [Compound 3c, 2-(3,4-dimethoxyphenoxyl)ethyl 1-(benzo[d]thiazol-6-ylsulfonyl)-piperidine-2-carboxylate, reference compound]

Structure (SMILES): COc1ccc(OCCN2CC3CCCC(C2=O)N3S(=O)(=O)c2ccc3ncsc3c2)cc1OC (centres unmarked) [Compound 4c, 9-(benzo[d]thiazol-6-ylsulfonyl)-3-(2-(3,4-dimethoxyphenoxyl)ethyl)-3,9-diazabicyclo[3.3.1]nonan-2-one]
- FKBP12 ligand efficiency (LE) (FKBP12): 0.24
- Ki (FKBP12): 0.9 ± 2 µM
- FKBP51 ligand efficiency (LE) (FKBP51): 0.17
- Ki (FKBP51): 64.8 ± 12.3 µM

Structure (SMILES): COc1ccc(OCCN2CCC3CCCC(C2=O)N3S(=O)(=O)c2cc(Cl)c(O)c(Cl)c2)cc1OC (centres unmarked) [Compound 5i, 10-(3,5-dichloro-4-hydroxyphenylsulfonyl)-3-(2-(3,4-dimethoxyphenoxyl)ethyl)-3,10-diazabicyclo[4.3.1]decan-2-one]
- FKBP52 ligand efficiency (LE) (FKBP52): 0.21
- Ki (FKBP52): 3.5 ± 0.4 µM
- FKBP12 ligand efficiency (LE) (FKBP12): 0.24
- Ki (FKBP12): 0.4 ± 0.04 µM
- FKBP51 ligand efficiency (LE) (FKBP51): 0.23
- Ki (FKBP51): 1 ± 0.1 µM

Structure (SMILES): COc1ccc(OCCN2CC3CCCC(C2=O)N3C(=O)C(=O)c2cc(OC)c(OC)c(OC)c2)cc1OC (centres unmarked) [Compound 4a, 1-(3-(2-(3,4-dimethoxyphenoxyl)ethyl)-2-oxo-3,9-diazabicyclo[3.3.1]nonan-9-yl)-2-(3,4,5-trimethoxyphenyl)ethane-1,2-dione, reference compound]
- FKBP52 ligand efficiency (LE) (FKBP52): 0.15
- Ki (FKBP52): 79.4 ± 20 µM
- FKBP12 ligand efficiency (LE) (FKBP12): 0.24
- Ki (FKBP12): 0.2 ± 0.01 µM
- FKBP51 ligand efficiency (LE) (FKBP51): 0.15
- Ki (FKBP51): 51.1 ± 7.6 µM

- Ki (FKBP51): 0.028 ± 0.005 µM
Structure (SMILES): C=CC[C@@H]1/C=C(\C)C[C@H](C)C[C@H](OC)[C@H]2O[C@@](O)(C(=O)C(=O)N3CCCC[C@H]3C(=O)O[C@H](/C(C)=C/[C@@H]3CC[C@@H](O)[C@H](OC)C3)[C@H](C)[C@@H](O)CC1=O)[C@H](C)C[C@@H]2OC [FK 506, FK506, reference compound]

Structure (SMILES): COc1ccc(OCCN2CC3CCCC(C2=O)N3S(=O)(=O)c2cc(Cl)cc(Cl)c2)cc1OC (centres unmarked) [Compound 4b, 9-(3,5-dichlorophenylsulfonyl)-3-(2-(3,4-dimethoxyphenoxyl)ethyl)-3,9-diazabicyclo[3.3.1]nonan-2-one]
- FKBP52 ligand efficiency (LE) (FKBP52): 0.20
- Ki (FKBP52): 12.2 ± 3.7 µM
- FKBP12 ligand efficiency (LE) (FKBP12): 0.28
- Ki (FKBP12): 0.14 ± 0.01 µM
- FKBP51 ligand efficiency (LE) (FKBP51): 0.21
- Ki (FKBP51): 8.8 ± 1.1 µM

Structure (SMILES): O=C1NCCC2CCCC1N2S(=O)(=O)c1ccc2[nH]c(=O)sc2c1 (centres unmarked) [Compound 5e, 6-(2-oxo-3,10-diazabicyclo[4.3.1]decan-10-ylsulfonyl)benzo[d]thiazol-2(3H)-one]
- FKBP52 ligand efficiency (LE) (FKBP52): 0.27
- Ki (FKBP52): 22.6 ± 1 µM
- FKBP12 ligand efficiency (LE) (FKBP12): 0.41
- Ki (FKBP12): 0.06 ± 0.002 µM
- FKBP51 ligand efficiency (LE) (FKBP51): 0.29
- Ki (FKBP51): 9.8 ± 0.5 µM

- Ki (FKBP52): > 100 µM
- FKBP12 ligand efficiency (LE) (FKBP12): 0.22
- Ki (FKBP12): 0.3 ± 0.03 µM
Structure (SMILES): COc1ccc(OCCOC(=O)C2CCCCN2C(=O)C(=O)c2cc(OC)c(OC)c(OC)c2)cc1OC (centres unmarked) [Compound 3a, 2-(3,4-dimethoxyphenoxyl)ethyl 1-(2-oxo-2-(3,4,5-trimethoxy-phenyl)acetyl)piperidine-2-carboxylate, reference compound]
